The results in this text go back to patent US12187758B2 (ROME Therapeutics, Inc., priority 2022, dated 2025).

For series [1], the system named is interferon-stimulated gene (ISG) response. Briefly: In vivo decitabine challenge model in BALB/c mice. The note with it: decitabine i.p. 5 mg/kg, RNAseq. Here is the method: Thirty 9-11 week old BALB/c mice were acclimated to the lab for at least 5 days. Compounds 2, 40 and 67 were prepared in a 20% PEG400 (pH 3.5) solution for p.o. administration, compounds were prepared no more than 30 minutes prior to daily dosing. Decitabine (Sigma) was dissolved in sterile PBS (pH 7.4) and dosed within 30 minutes of preparation of the solution. Doses of both the compound and decitabine were administered once a day, every day from Day 0 to day 4. On Day 0, mice were split into […] of five mice and given their first dose of decitabine (i.p., 5 mg/kg) and compound. Dosing groups were as in the following table (all doses in mg/kg): [table] Decitabine (i.p., 5 mg/kg) and compounds 2, 40 or 67 were administered daily from […] to Day 4. All mice were euthanized 1 hour after the last dose administration on Day 4. Spleen and kidneys were harvested and snap frozen in liquid nitrogen, and plasma (EDTA) was collected for bioanalysis. Total RNA was isolated using the PureLink RNA Mini Kit (ThermoFisher) and prepared for RNAseq using the TruSeq Stranded mRNA platform (Illumina). 50M Stranded reads were collected on an Illumina HiSeq system. Data were analyzed as follows: RNA sequencing reads were aligned to the […] reference genome using the STAR RNA-seq aligner (Dobin et al., 2013). Expression of each transcript was quantified using Salmon (Patro, et al. 2015) TPM values for each transcript. These transcript-level TPM values were aggregated by gene to get gene-level TPM values, and log-transformed these values. Mouse orthologs for each gene in the list of ISG-associated genes in the human genome from Liu et al., 2019 using Ensembl BioMart (Kinsella et al., 2011) were identified. The ISG score for each sample was calculated as the median log-transformed TPM value across all genes in this ISG gene set.

A further series concerns human PBMC. Briefly: Decitabine-stimulated human PBMC assay. In kind it is cell-based. As to conditions: PBMCs, 5 days; for IFN-β production: anti-CD3/anti-CD28, decitabine 10 μM, FIGS. 3A and 3B. Here is the method: EasySep buffer (32 mL, […] Technologies, cat. #20144) was used to dilute 8 mL of LRSC buffy coat (from fresh Leukopak) with gentle mixing. The diluted buffy coat (20 mL) was transferred into each of two SepMate 50 tubes, and the tubes were filled with 15 mL of Lyphoprep ([…], cat. #07851) density gradient. The SepMate tubes were then centrifuged at 1200 G for 10 minutes at room temperature with the brake on. The top layer of supernatant was collected in SepMate tubes by quickly pouring it into a new 50 mL conical tube. The PBMCs were washed with EasySep buffer×2 by centrifuging at 300 G for 5 minutes. The cells were resuspended in 30 mL of EasySep and centrifuged at 100 G for 5 minutes with the brake off, and the platelets were removed. The cells were then resuspended in 6 mL of 1×RBC lysis buffer (Invitrogen) and incubated at 37° C. for 5 minutes. 25 mL of EasySep buffer was then mixed into the tube and centrifuged at 300 G for 5 minutes. The cells were resuspended in 10 mL of EasySep buffer and the cells were then counted with Cellometer (AO/PI). The PBMCs were resuspended in RPMI1640 (ThermoFisher)+ 10% FBS (HyClone)+μ/s at 3×10^6/mL. The PBMCs (100 μL, 300 k PBMCs) were then seeded in a 96-well flat bottom microplate (Corning) that had been precoated with 100 μL of anti-CD3 antibody (10 μg/mL in PBS, Biolegend) or PBS at 4° C., one day before the assay was commenced.
To each well the following solutions were added 1) 100 μL of cells (final cell number per well is 3×10^5 cell/well); 2) 25 μL of anti-CD28 antibody at 6× (5 μg/mL final concentration, Biolegend); 3) 25 μL of decitabine at 6× (10 μM final concentration); and 4) Compound in DMSO was dispensed directly into each well with a d300e digital dispenser (Tecan). The final concentration of DMSO for each well was normalized to 0.3%. The plate was incubated at 37° C. without any agitation for 5 days. Samples were collected 120 hours after incubation to determine IFN-β […] levels using a U-PLEX Human IFN-β Assay Sector (5PL) (MSD, cat. #K151VIK-2).
After 5 days, the plate was spun down at 100×G for 5 minutes. Supernatants (100 μL) were collected for interferon R (IFN-0) analysis using the MSD assay noted above, and any residual supernatant was stored at −80° C.

Another series has as its system 7S mitochondria DNA. Put plainly: Mitochondria DNA assay with PC3 cells. Format: cell-based. The note with it: Homo sapiens, PC-3, 120 h, 5 days, 7S mitochondria DNA level by qPCR relative to 18S or GAPDH. As to the method: Exemplary compounds were tested for their effect on levels of 7S mitochondria DNA, and the DNA of housekeeping genes 18S and GAPDH. Reduction of 7S mitochondria DNA indicates off-target inhibition of mitochondrial DNA synthesis, which leads to mitochondrial toxicity. Assay procedures and results are described below.
PC3 cells were purchased from ATCC and cultured in F-12 Kaighn's modified medium (Hyclone), 10% heat-inactivated fetal bovine serum (Gibco), 1% Penicillin-Streptomycin (Invitrogen). PC3 cells were treated with a dose titration of a test compound on 6 well plates for 5 days at 37° C., 5% CO2 in a humidified incubator.
Cells were harvested and mitochondria DNA extraction was performed using DNeasy Blood & Tissue Kit (Qiagen) according to the manufacture's instruction.
Mitochondria 7S and housekeeping genes 18S and GAPDH DNA was quantified by multiplex qPCR with the PowerUp™ SYBR™ Green system (Applied Biosystems). Prepare reaction mix consisting of 5 μl of 2× PowerUp™ SYBR™ Green Master Mix, 1 μl of 5 μM Primers for 7S, 18S, or GAPDH, 4 μl of DNA template from DNA extraction above. The primer sequences are below:
qPCR was performed on QuantStudio™ 7 Flex RealTime qPCR system (Applied Biosystems) as set forth below: • a. 50° C. for 2 minutes, then • b. 95° C. for 2 minutes, then • c. 95° C. for 15 seconds, then • d. 60° C. for 60 seconds, • where then steps (c) and (d) were repeated 60 times.
Threshold was calculated by QuantStudio™ 7 Flex Software (ThermoFisher Scientific) using the default settings. Ct values were used to evaluate the relative mitochondria DNA (mtDNA) level using the following formula: ΔCt=Ct (7S target gene)−Ct (18S) or ΔCt=Ct (7S target gene)−Ct (GAPDH). Relative mtDNA level=2^−Δct. Expression fold over DMSO control=2^−Δct (compound treated group)/2^−Δct (DMSO group)
In the table “A” represents values≤0.1 μM; “B” represents values from >0.1 μM to ≤1.0 μM; “C” represents values from >1.0 μM to ≤10.0 μM; “D” represents values from >10.0 μM to ≤100.0 μM; and “E” represents values>100.0 μM.
In general terms: Real-time PCR tracks product formation cycle by cycle.

For a further series, the system named is pTBK1. Put plainly: pTBK1 level with and without UVB exposure (Example 111). The note with it: varying concentrations of compound, alone or after UVB exposure (FIGS. 4B and 4C). Format: cell-based.

On to `Nc1ccn([C@H]2C[C@H](O)[C@](CO)(CCl)O2)c(=O)n1` [Compound 2, 4-amino-1-((2R,4S,5R)-5-(chloromethyl)-4-hydroxy-5-(hydroxymethyl)tetrahydrofuran-2-yl)pyrimidin-2(1H)-one], for which the “change in the ISG Score in the spleen and kidney” value (shortened to “change in the ISG Score”) in series [1] (compound 100 mg/kg p.o. daily) was “show a change in the ISG Score in the spleen and kidney”. Besides, the IFN-β production result with human PBMC is reported as “showed inhibition of IFN-β”. In the series on 7S mitochondria DNA, this molecule gave an IC50 of at most 0.1 µM. Further, the “level of pTBK1” value in the series with pTBK1 is “varies in a dose-dependent fashion”.

For `Nc1nc(=O)n([C@@H]2O[C@@](CO)(CCl)[C@@H](O)[C@@H]2F)cc1F` [Compound 67, 4-amino-1-[(2R,3S,4R,5R)-5-(chloromethyl)-3-fluoro-4-hydroxy-5-(hydroxymethyl)oxolan-2-yl]-5-fluoropyrimidin-2-one], the “change in the ISG Score” value was “show a change in the ISG Score in the spleen and kidney” in series [1] (compound 30 mg/kg p.o. daily); “show a change in the ISG Score in the spleen and kidney” in series [1] (compound 100 mg/kg p.o. daily). This molecule gave a half-maximal inhibitory concentration (IC50) in the series on 7S mitochondria DNA of over 100 µM.

In the series on 7S mitochondria DNA, `[N-]=[N+]=N[C@]1(CO)O[C@@H](n2cc(F)c(N)nc2=O)C[C@@H]1O` [Compound 61, 4-amino-1-((2R,4S,5R)-5-azido-4-hydroxy-5-(hydroxymethyl)tetrahydrofuran-2-yl)-5-fluoropyrimidin-2(1H)-one] had an IC50 of over 100 µM.

As for `C#C[C@]1(CO)O[C@@H](n2cnc3c(N)nc(Cl)nc32)C[C@@H]1O` [Compound 25], the IFN-β production entry in the series on human PBMC was “activated production of IFN-β”. In the series on 7S mitochondria DNA, this molecule had a concentration for half-maximal inhibition (IC50) of over 100 µM.

As to `Nc1nc(=O)n([C@H]2C[C@H](O)[C@](CO)(CCl)O2)cc1F` [Compound 14, 4-amino-1-((2R,4S,5R)-5-(chloromethyl)-4-hydroxy-5-(hydroxymethyl)tetrahydrofuran-2-yl)-5-fluoropyrimidin-2(1H)-one], the half-maximal inhibitory concentration (IC50) in the series on 7S mitochondria DNA is at most 0.1 µM. In addition, the “level of pTBK1” value with pTBK1 is recorded as “varies in a dose-dependent fashion”.

On to `CC[C@]1(CO)O[C@@H](n2ccc(N)nc2=O)C[C@@H]1O` [Compound 44, 4-amino-1-((2R,4S,5R)-5-ethyl-4-hydroxy-5-(hydroxymethyl)tetrahydrofuran-2-yl)pyrimidin-2(1H)-one], for which the IC50 in the series on 7S mitochondria DNA is over 100 µM. Further, the “level of pTBK1” value in the series with pTBK1 was “varies in a dose-dependent fashion”.

In the case of `Nc1nc(=O)n([C@H]2C[C@H](O)[C@](CO)(CBr)O2)cc1F` [Compound 88, 4-amino-1-((2R,4S,5R)-5-(bromomethyl)-4-hydroxy-5-(hydroxymethyl)tetrahydrofuran-2-yl)-5-fluoropyrimidin-2(1H)-one], the concentration for half-maximal inhibition (IC50) with 7S mitochondria DNA is at most 0.1 µM.

Consider `Nc1ccn([C@@H]2O[C@@](CO)(CCl)[C@@H](O)[C@@H]2F)c(=O)n1` [Compound 40, 4-amino-1-((2R,3S,4R,5R)-5-(chloromethyl)-3-fluoro-4-hydroxy-5-(hydroxymethyl)tetrahydrofuran-2-yl)pyrimidin-2(1H)-one], for which the “change in the ISG Score” value in series [1] (compound 100 mg/kg p.o. daily) is “show a change in the ISG Score in the spleen and kidney”. Moreover, in the series with human PBMC, the IFN-β production entry was “showed inhibition of IFN-β”. Moreover, the cell viability result with human PBMC (decitabine 10 μM) is listed as “some cell viability losses at higher concentrations”. The IC50 in the series with 7S mitochondria DNA was over 100 µM. Further, the “level of pTBK1” value in the series on pTBK1 was “varies in a dose-dependent fashion”.

For orientation: IC50 means the midpoint of a concentration-inhibition curve. High values mean weaker potency in that assay, low ones greater potency in that assay.
